Laboratory results reported in publication PMC10396955, “2-Oxabicyclo[2.1.1]hexanes as saturated bioisosteres of the ortho-substituted phenyl ring” (Nature Chemistry, 2023).
In brackets after ≈: the same amount, converted by molar mass. Read-outs that look alike come from different tables or passages of the source.

Key:
[1] = Kinetic solubility in phosphate-buffered saline, pH 7.4; assay type: physicochemical; details: phosphate-buffered saline, 25 °C, pH 7.4, aqueous buffer, kinetic from dmso stock
Protocol: Analysis of Aqueous Solubility […]
compound (Ondansetron) were assessed for kinetic solubility in phosphate-buffered saline, pH […]
Phosphate buffered saline, pH 7.4 (Sigma-Aldrich, USA; Cat #P3813) […]
MultiScreen HTS 96 Well Filter Plates (Millipore, Ireland; Cat # MSGVS2210) […]
Matrix Multichannel Electronic Pipette 2-125 µL, 5-250 µL, 15-1250 µL (Thermo Scientific, […]
Vacuum pump (Millipore, USA; Model # XX5500000)
The measurements were performed using SpectraMax Plus reader in UV-Vis mode. Acquisition and analysis of the data were performed using SoftMax Pro v.5.4 (Molecular Devices) and Excel […]
Kinetic solubility assay was performed according to the Enamine’s aqueous solubility SOP.
Briefly, using a 20 mM stock solution of the compound in 100% DMSO dilutions were prepared to a theoretical concentration of 400 μM in duplicates in phosphate-buffered saline pH 7.4 […]
for two hours and then filtered through HTS filter plates using a vacuum manifold. The filtrates of test compounds were diluted 2-fold with acetonitrile with 2% DMSO before measuring.
In parallel, compound dilutions in acetonitrile/PBS (1:1) were prepared to theoretical […]
DMSO to generate calibration curves. Ondansetron was used as reference compound to control proper assay performance. 200 μl of each sample was transferred to 96-well plate and measured in 200-550 nm range with 5 nm step.
The concentrations of compounds in PBS filtrate are calculated using a dedicated Microsoft Excel calculation script. Proper absorbance wavelengths for calculations are selected for each compound manually based on absorbance maximums (absolute absorbance unit values for the minimum and maximum concentration points within 0 – 3 OD range). Each of the final datasets is additionally visually evaluated by the operator and goodness of fit (R2) is calculated for each calibration curve. The effective range of this assay is approximately 2-400 μM and the […]

[2] = physchem; assay type: physicochemical; details: for D (partition ratio), incubation 1 / D (partition ratio), incubation 2 / D (partition ratio), incubation 3: Table S2, n-octanol/PBS pH 7.4
Protocol: Determination of Distribution Coefficient (LogD, pH 7.4) […]
n-octanol – phosphate buffered saline (PBS), pH 7.4. Distribution coefficient (or LogD) is a […]
Phosphate buffered saline, tablet (Sigma-Aldrich, USA; Cat # P4417)
Acetic acid (Enamine, Ukraine.)
DMSO stock solutions of the test compounds 10mM
Gradient HPLC system (Shimadzu, Japan)
MTR22 Multi Mix Rotator (UNICO, USA)
Laboratory Centrifuge, Sigma 4-15C, Qiagen (SIGMA GmbH, Germany) […]
allowed to mix in a rotator for 1 h at 30 rpm. Phase separation was assured by centrifugation for […]
dilution. The samples (both phases) were analyzed using a HPLC system coupled with a tandem mass spectrometer. Mebendazole was used as a reference compound. […]
where: SO – peak area of the analyte in octanol phase
S P – peak area of the analyte in PBS buffer do – dilution coefficient for octanol phase dp – dilution coefficient for aqueous phase

[3] = Metabolic stability in human liver microsomes; assay type: in vitro ADME; details: both sexes; for half-life at 2 µM: read-out: t1/2; for k el at 2 µM: elimination constant, read-out: kel (converted)
Protocol: (§1) The data acquisition and system control was performed using Analyst 1.6.3 software from AB Sciex. Methods Microsomal incubations were carried out in 96-well plates in 5 aliquots of 30 μL each (one for each time point). […] In the control reactions the NADPH-cofactor system was substituted with phosphate buffer. […] Each reaction was performed in duplicates. Five time points over 40 minutes were analyzed. The reactions were stopped by adding 4 volumes of methanol containing internal standard to incubation aliquots, followed by protein sedimentation by centrifuging at 5500 rpm for 4 minutes. […]. Supernatants were analyzed using the HPLC system coupled with tandem mass spectrometer. […] In some cases, the last time point is excluded from the calculations to ensure acceptable logarithmic linearity of decay.

[4] = system: human liver microsomes; assay: Metabolic stability in human liver microsomes; assay type: in vitro ADME; details: for metabolic stability (in words) / CIint, intrinsic clearance: human liver microsomes
Protocol: as §1

[5] = Table S1, incubation 1, read-out: PBS solubility, pH 7.4, Incubation 1
[6] = Table S1, incubation 2, read-out: PBS solubility, pH 7.4, Incubation 2
[7] = Table S1, mean of 2 incubations, 2 h, 2% DMSO, effective range approx. 2-400 μM, read-out: PBS solubility, pH 7.4, Mean
[8] = experimental kinetic solubility in phosphate-buffered saline at pH 7.4, Fig. 3, read-out: Solubility
[9] = pH 7.4, LogD, pH 7.4, incubation 1
[10] = pH 7.4, LogD, pH 7.4, incubation 2
[11] = pH 7.4, LogD, pH 7.4, incubation 3
[12] = human, liver microsomes, pH 7.4, human liver microsomes, 2 μM, 37 °C, with NADPH, 7 min
[13] = human, liver microsomes, pH 7.4, human liver microsomes, 2 μM, 37 °C, with NADPH, 15 min
[14] = human, liver microsomes, pH 7.4, human liver microsomes, 2 μM, 37 °C, with NADPH, read-out: % Remaining, Mean of 2
[15] = pH 7.4, human liver microsomes, no NADPH cofactor, ** instability partially or completely not determined by CYP450 activity, read-out: % Remaining without cofactor, Mean of 2
[16] = human, liver microsomes, pH 7.4, human liver microsomes, 0.42 mg protein per ml, Table S3, * approximate due to high stability, read-out: Clint
[17] = human, liver microsomes, pH 7.4, human liver microsomes, * approximate due to high stability
[18] = pH 7.4, human liver microsomes, * approximate due to high stability

solubility at 2 h [1, 5] [µM] | solubility at 2 h [1, 6] [µM] | solubility at 2 h [1, 7] [µM] | solubility at 2 h [1, 8] [µM] | D (partition ratio), incubation 1 [2] | D (partition ratio), incubation 2 [2] | D (partition ratio), incubation 3 [2] | logD at 1 h ([2]; pH 7.4, LogD, pH 7.4 (mean)) | logD at 1 h [2, 9] | logD at 1 h [2, 10] | logD at 1 h [2, 11] | logD at 1 h ([2]; pH 7.4, logD (7.4)) | remaining at […], 2 µM [3, 12] [%] | remaining at […], 2 µM [3, 13] [%] | remaining at 25 min, 2 µM [3, 14] [%] | remaining at 40 min, 2 µM [3, 14] [%] | remaining at 40 min, 2 µM [3, 15] [%] | metabolic stability (in words) [4] | microsomal CLint at 2 µM [3, 16] [µL/min/mg] | half-life at 2 µM [3, 17] [min] | SMILES | other results
2 (≈ 1.4 µg/mL) | 4 (≈ 2.8 µg/mL) | 3 (≈ 2.1 µg/mL) | – | 1.46E+05 | 1.62E+05 | 8.88E+04 | > 4.5 | > 4.5 | > 4.5 | > 4.5 | > 4.5 | 102 | 77 | 36 | 29 | 84 | – | 87 | 19.2 | O=C(NC1CCN(CCCCC2(C(=O)NCC(F)(F)F)c3ccccc3-c3ccccc32)CC1)[C@@H]1[C@H]2C[C@]1(c1ccc(C(F)(F)F)cc1)CO2 (relative stereo) [Compound 35] | k el at 2 µM [3, 18]: 0.0006 s⁻¹; CIint, intrinsic clearance [4]: 87 µL/min/mg
– | – | – | – | 1.27E+03 | 1.32E+03 | 1.33E+03 | 3.12 | 3.1 | 3.12 | 3.12 | – | – | – | – | – | – | – | – | – | COC(=O)Nc1nc2ccc(C(=O)c3ccccc3)cc2[nH]1 [Mebendazole, reference compound] | –

More lines, now with the values behind:

SMILES | solubility at 2 h [1, 5] [µM] | solubility at 2 h [1, 6] [µM] | solubility at 2 h [1, 7] [µM] | solubility at 2 h [1, 8] [µM] | D (partition ratio), incubation 1 [2] | D (partition ratio), incubation 2 [2] | D (partition ratio), incubation 3 [2] | logD at 1 h ([2]; pH 7.4, LogD, pH 7.4 (mean)) | logD at 1 h [2, 9] | logD at 1 h [2, 10] | logD at 1 h [2, 11] | logD at 1 h ([2]; pH 7.4, logD (7.4)) | remaining at […], 2 µM [3, 12] [%] | remaining at […], 2 µM [3, 13] [%] | remaining at 25 min, 2 µM [3, 14] [%] | remaining at 40 min, 2 µM [3, 14] [%] | remaining at 40 min, 2 µM [3, 15] [%] | metabolic stability (in words) [4] | microsomal CLint at 2 µM [3, 16] [µL/min/mg] | half-life at 2 µM [3, 17] [min] | other results
O=C(O)[C@@H]1[C@@H]2CC[C@@]1(C(=O)Nc1ccc(S(=O)(=O)Nc3nccs3)cc1)C2 (relative stereo) [Compound 32] | 151 (≈ 61.5 µg/mL) | 164 (≈ 66.8 µg/mL) | 158 (≈ 64.4 µg/mL) | 101 (≈ 41.2 µg/mL) | 8.13E-02 | 3.23E-02 | 2.75E-02 | < 1 | < 1 | < 1 | < 1 | < 1 | 97 | 97 | 99 | 100 | 89 | metabolically stable | – | – | –
O=C(NC1CCN(CCCCC2(C(=O)NCC(F)(F)F)c3ccccc3-c3ccccc32)CC1)[C@@H]1[C@@H]2CC[C@@]1(c1ccc(C(F)(F)F)cc1)C2 (relative stereo) [Compound 34] | 2 (≈ 1.4 µg/mL) | 2 (≈ 1.4 µg/mL) | 2 (≈ 1.4 µg/mL) | 2 ± 0.2 (≈ 1.4 µg/mL) | 3.53E+08 | 3.40E+06 | 1.71E+05 | > 4.5 | > 4.5 | > 4.5 | > 4.5 | > 4.5 | 76 | 41 | 21 | 8 | 91 | – | 157 | 10.6 | k el at 2 µM [3, 18]: 0.00108 s⁻¹; CIint, intrinsic clearance [4]: 157 µL/min/mg
O=C(O)C1C2CC1(C(=O)Nc1ccc(S(=O)(=O)Nc3nccs3)cc1)CO2 (stereo not drawn) [Compound 33] | 100 (≈ 40.9 µg/mL) | 102 (≈ 41.8 µg/mL) | 101 (≈ 41.4 µg/mL) | 158 (≈ 64.7 µg/mL) | 2.39E-01 | 1.93E-02 | 5.50E-01 | -0.87 | -0.62 | -1.72 | -0.26 | < 1 | 111 | 111 | 109 | 106 | 92 | metabolically stable | ~1 | ~1190 | microsomal CLint at 2 µM ([3]; human, liver microsomes, pH 7.4, human liver microsomes, Fig. 3, read-out: CIint, intrinsic clearance): 1 µL/min/mg
O=C(O)Cc1ccccc1Nc1c(Cl)cccc1Cl [Diclofenac, reference compound] | – | – | – | – | – | – | – | – | – | – | – | – | – | – | – | – | – | – | – | – | kel ([4]; both, human, 2 µM, pH 7.4): 0.115 min⁻¹; Clint ([4]; both, human, microsomes, 2 µM, pH 7.4): 276 µL/min/mg; % Remaining, Mean of 2 ([4]; both, human, microsomes, 25 min, 2 µM, pH 7.4): 8%
